Measurements from patent publication US10131652B2, “Pyrimidinyloxy benzene derivatives as herbicides” (E. I. DU PONT DE NEMOURS AND COMPANY, priority 2014, dated 2018).

Legend:
Format in all cases: in vivo
[1] = system: galium (catchweed bedstraw, Galium aparine); assay: Test B postemergence plant response
Summary of the method: (§1)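 Weeds grown in loam soil/sand pots were sprayed postemergence at 2 to 10 cm height, one- to two-leaf stage. After approximately 10 days in greenhouse, injury was rated visually against untreated controls on a 0 (no effect) to 100 (complete control) scale; dash means no test result.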

[2] = system: blackgrass (Alopecurus myosuroides); assay: Test B postemergence plant response
Summary of the method: as §1

[3] = system: chickweed (common chickweed, Stellaria media); assay: Test D postemergence plant response; details: for Chickweed plant response rating: scale 0 to 100 (0 no effect, 100 complete control); for Plant response rating, Chickweed: scale 0 to 100, 0 no effect, 100 complete control
Summary of the method: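 Postemergence spray on plants 2–18 cm tall (1- to 4-leaf stage), grown in pots of peat/vermiculite medium. Plants were kept in a greenhouse for 13–15 days, then visually rated against untreated controls on a 0 (no effect) to 100 (complete control) scale.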

[4] = system: barnyardgrass (Echinochloa crus-galli); assay: Test D pre-/postemergence plant response
Summary of the method: (§2)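 Visual injury scoring (0–100) at 13 to 15 days in greenhouse. Preemergence sprays on seeded loam/sand; postemergence sprays on 1–4 leaf plants.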

[5] = system: yellow nutsedge (Cyperus esculentus); assay: Test D pre-/postemergence plant response
Summary of the method: as §2

[6] = system: pigweed (Amaranthus retroflexus); assay: Test D pre-/postemergence plant response
Summary of the method: as §2

[7] = system: ragweed (common ragweed, Ambrosia elatior); assay: Test D pre-/postemergence plant response
Summary of the method: as §2

[8] = system: Italian ryegrass (Lolium multiflorum); assay: Test D pre-/postemergence plant response
Summary of the method: as §2

soybean (Glycine max) = assay: Test D pre-/postemergence plant response
Summary of the method: as §2

[9] = system: morningglory (Ipomoea coccinea); assay: Test D pre-/postemergence plant response
Summary of the method: as §2

[10] = system: oilseed rape (Brassica napus); assay: Test D pre-/postemergence plant response
Summary of the method: as §2

corn (Zea mays) = assay: Test D pre-/postemergence plant response
Summary of the method: as §2

[11] = system: giant foxtail (Setaria faberii); assay: Test D pre-/postemergence plant response
Summary of the method: as §2

[12] = system: waterhemp (common waterhemp, Amaranthus rudis); assay: Test D pre-/postemergence plant response
Summary of the method: as §2

[13] = 125 g ai/ha, postemergence, 0 to 100 scale, 0 no effect, 100 complete control
[14] = Postemergence, 500 g ai/ha, 0 to 100 scale (0 no effect, 100 complete control)
[15] = Postemergence, 16 g ai/ha, scale 0 to 100 (0 no effect, 100 complete control)
[16] = Postemergence, 31 g ai/ha, scale 0 to 100 (0 no effect, 100 complete control)
[17] = Postemergence, 62 g ai/ha, scale 0 to 100, 0 no effect, 100 complete control
[18] = Postemergence, 125 g ai/ha, scale 0 to 100, 0 no effect, 100 complete control
[19] = Preemergence, 16 g ai/ha, scale 0 to 100 (0 no effect, 100 complete control)
[20] = Preemergence, 31 g ai/ha, scale 0 to 100 (0 no effect, 100 complete control)
[21] = Preemergence, 62 g ai/ha, scale 0 to 100 (0 no effect, 100 complete control)

Cc1cc(-c2ccccc2Oc2ncc(Cl)cn2)on1 [Compound 58]
98: Plant response rating, Oilseed Rape [10, 20] | Plant response rating (scale 0 to 100), Foxtail, Giant ([11]; Preemergence, 125 g ai/ha)
45: Ragweed plant response rating [7, 16] | Morningglory plant response rating [9, 16] | Plant response rating, Morningglory [9, 17] | Plant response rating (scale 0 to 100), Morningglory ([9]; Preemergence, 125 g ai/ha)
40: Plant response rating, Pigweed [6, 17] | Soybean plant response rating (soybean (Glycine max); [16]) | Waterhemp plant response rating [12, 16]
90: Plant response rating, Blackgrass [2, 14]
85: Plant response rating (scale 0 to 100), Soybean (soybean (Glycine max); Preemergence, 125 g ai/ha) | Plant response rating, Foxtail, Giant [11, 21]
55: Soybean plant response rating (soybean (Glycine max); [15]) | Plant response rating, Waterhemp [12, 17]
5: Chickweed plant response rating ([3]; 16 g ai/ha) | Plant response rating, Barnyardgrass [4, 18] | Plant response rating, Barnyardgrass [4, 19] | Plant response rating, Barnyardgrass [4, 20] | Plant response rating (scale 0 to 100), Ryegrass, Italian ([8]; Preemergence, 125 g ai/ha) | Oilseed Rape plant response rating [10, 15] | Plant response rating, Corn (corn (Zea mays); [17]) | Plant response rating, Corn (corn (Zea mays); [18]) | Plant response rating, Corn (corn (Zea mays); [19])
100: Plant response rating, Galium [1, 13] | Plant response rating, Galium [1, 14] | Plant response rating (scale 0 to 100), Pigweed ([6]; Preemergence, 125 g ai/ha) | Plant response rating, Pigweed [6, 20] | Plant response rating, Pigweed [6, 21] | Plant response rating (scale 0 to 100), Ragweed ([7]; Preemergence, 125 g ai/ha) | Plant response rating, Ragweed [7, 19] | Plant response rating (scale 0 to 100), Oilseed Rape ([10]; Preemergence, 125 g ai/ha) | Plant response rating, Oilseed Rape [10, 21] | Plant response rating (scale 0 to 100), Waterhemp ([12]; Preemergence, 125 g ai/ha) | Plant response rating, Waterhemp [12, 19] | Plant response rating, Waterhemp [12, 20] | Plant response rating, Waterhemp [12, 21]
10: Chickweed plant response rating ([3]; 31 g ai/ha) | Plant response rating, Morningglory [9, 19] | Oilseed Rape plant response rating [10, 16] | Plant response rating, Corn (corn (Zea mays); [21])
80: Plant response rating (scale 0 to 100), Barnyardgrass ([4]; Preemergence, 125 g ai/ha) | Plant response rating, Soybean (soybean (Glycine max); [21])
50: Plant response rating, Pigweed [6, 19]
75: Plant response rating, Pigweed [6, 18] | Plant response rating, Ragweed [7, 21] | Plant response rating, Soybean (soybean (Glycine max); [18]) | Plant response rating, Oilseed Rape [10, 18] | Plant response rating, Waterhemp [12, 18]
15: Plant response rating, Chickweed ([3]; 62 g ai/ha) | Plant response rating (scale 0 to 100), Nutsedge, Yellow ([5]; Preemergence, 125 g ai/ha) | Plant response rating, Foxtail, Giant [11, 17] | Plant response rating, Foxtail, Giant [11, 20]
25: Pigweed plant response rating [6, 16] | Plant response rating, Morningglory [9, 20]
30: Plant response rating, Chickweed ([3]; 125 g ai/ha) | Plant response rating, Soybean (soybean (Glycine max); [19]) | Plant response rating, Foxtail, Giant [11, 18]
60: Plant response rating, Ragweed [7, 18] | Plant response rating, Soybean (soybean (Glycine max); [17]) | Plant response rating, Oilseed Rape [10, 17] | Plant response rating, Oilseed Rape [10, 19]
70: Plant response rating, Blackgrass [2, 13]
0: Barnyardgrass plant response rating [4, 15] | Barnyardgrass plant response rating [4, 16] | Plant response rating, Barnyardgrass [4, 17] | Nutsedge, Yellow plant response rating [5, 15] | Nutsedge, Yellow plant response rating [5, 16] | Plant response rating, Nutsedge, Yellow [5, 17] | Plant response rating, Nutsedge, Yellow [5, 18] | Plant response rating, Nutsedge, Yellow [5, 19] | Plant response rating, Nutsedge, Yellow [5, 20] | Plant response rating, Nutsedge, Yellow [5, 21] | Ryegrass, Italian plant response rating [8, 15] | Ryegrass, Italian plant response rating [8, 16] | Plant response rating, Ryegrass, Italian [8, 17] | Plant response rating, Ryegrass, Italian [8, 18] | Plant response rating, Ryegrass, Italian [8, 19] | Plant response rating, Ryegrass, Italian [8, 20] | Plant response rating, Ryegrass, Italian [8, 21] | Plant response rating, Morningglory [9, 21] | Corn plant response rating (corn (Zea mays); [15]) | Corn plant response rating (corn (Zea mays); [16]) | Foxtail, Giant plant response rating [11, 15] | Foxtail, Giant plant response rating [11, 16] | Plant response rating, Foxtail, Giant [11, 19]
65: Plant response rating (scale 0 to 100), Barnyardgrass ([4]; Preemergence, 62 g ai/ha) | Plant response rating, Ragweed [7, 17] | Plant response rating, Morningglory [9, 18]
35: Plant response rating, Ragweed [7, 20] | Plant response rating, Soybean (soybean (Glycine max); [20]) | Waterhemp plant response rating [12, 15]
20: Pigweed plant response rating [6, 15] | Ragweed plant response rating [7, 15] | Morningglory plant response rating [9, 15] | Plant response rating (scale 0 to 100), Corn (corn (Zea mays); Preemergence, 125 g ai/ha) | Plant response rating, Corn (corn (Zea mays); [20])
